We go through 14 compounds from ChEMBL document CHEMBL3588860, “Synthesis and antiproliferative activity of some novel benzo-fused imidazo[1,8]naphthyridinones” (Bioorg Med Chem Lett, 2015).

For one test, the system named is HCT-116. The test is described as follows: Antiproliferative activity against human HCT116 cells after 72 hrs by MTT assay. The class given is functional, cell-based. To be noted: HCT-116, 72 h.
The test system of a further test is MES-SA. Description: Ratio of IC50 for human MES-SA/Dx5 cells to IC50 for human MES-SA cells. The class given is functional.
A further test concerns Ishikawa. The test is described as follows: Antiproliferative activity against human Ishikawa cells after 72 hrs by MTT assay. Format: functional, cell-based. For orientation: Formazan colour is commonly taken as a measure of viable cells.
A short description of test [1]: Antiproliferative activity against human MES-SA/Dx5 cells after 72 hrs by MTT assay. Format: functional, cell-based. To be noted: MES-SA/Dx5, 72 h.
The nature of test [2]: Antiproliferative activity against human FM3 cells after 72 hrs by MTT assay. The class given is functional, cell-based. Particulars: FM3, 72 h.
Test [3] in a line: Antiproliferative activity against human MES-SA cells after 72 hrs by MTT assay. The class given is functional, cell-based.
Another test concerns Daudi. Description: Antiproliferative activity against human Daudi cells after 72 hrs by MTT assay. The class given is functional, cell-based.
The next test concerns HeLa. The test is described as follows: Antiproliferative activity against human HeLa cells after 72 hrs by MTT assay. The class given is functional, cell-based.

Usually IC50 stands for the concentration needed to halve the response being measured. High values mean weaker potency in that assay, low ones greater potency in that assay. Take `CCN(CC)CCn1c2ccccc2c(=O)c2cc3ncn(C4CCCC4)c3nc21`: the 50% inhibitory concentration (IC50) in the test on HCT-116 is 8.2 µM; in the test with Ishikawa, 28.6 µM; in test [1], 15.5 µM; in test [2] it was 28 µM; in test [3] it was 10.6 µM; in the test with Daudi, 10.6 µM. The compound also came in with an IC50 in the test on HeLa of 11.7 µM. Further, the “Ratio IC50” value in the test with MES-SA is 1.46.
As for `CCN(CC)CCn1c2ccccc2c(=O)c2cc3ncn(-c4ccccc4)c3nc21`, the half-inhibitory concentration (IC50) with HCT-116 came to 12.9 µM; in the test on Ishikawa it was 11.3 µM; in test [1], 10.4 µM; in test [2], 4.83 µM; in test [3], 5.2 µM; in the test on Daudi, 4.93 µM. Further, the 50% inhibitory concentration (IC50) in the test on HeLa came out at 7.27 µM. Besides, the “Ratio IC50” value with MES-SA was found to be 1.99.
As for `CC(C)n1cnc2cc3c(=O)c4ccccc4[nH]c3nc21`, the IC50 is 37.4 µM with HCT-116; 62.5 µM in the test on Ishikawa; 46 µM in test [1]; 66.7 µM in test [2]; 37.6 µM in test [3]; 34.7 µM in the test on Daudi. The midpoint of inhibition in the test on HeLa, the IC50, lay at 29.7 µM. Moreover, the “Ratio IC50” value in the test on MES-SA came to 1.23.
Regarding `O=c1c2ccccc2[nH]c2nc3c(cc12)ncn3C1CCCC1`, the concentration for half-maximal inhibition (IC50) was 42.4 µM in the test on HCT-116; 60.8 µM in the test on Ishikawa; 17.2 µM in test [1]; 30.1 µM in test [2]; 20 µM in test [3]; 15.3 µM in the test on Daudi. In the test with HeLa, this compound came in with an IC50 of 21.4 µM. In addition, in the test with MES-SA, the “Ratio IC50” value amounted to 0.86.
With `O=c1c2ccccc2[nH]c2nc3c(cc12)ncn3-c1ccccc1`, the IC50 in the test on HCT-116 was determined as 73.1 µM; with Ishikawa, 50 µM; in test [1], 34.4 µM; in test [2], 51.1 µM; in test [3], 47.4 µM; with Daudi it was 31.3 µM. Also, in the test with HeLa, the half-inhibitory concentration (IC50) is 27.6 µM. In the test with MES-SA, the “Ratio IC50” value is on record as 0.73.
In the case of `CC(C)n1cnc2cc3c(=O)c4ccccc4n(CCO)c3nc21`, the IC50 in the test on HCT-116 was determined as 40.4 µM; in the test on Ishikawa, 66.6 µM; in test [1] it was 32.6 µM; in test [2], 45.7 µM; in test [3], 34.6 µM; in the test with Daudi it was 22.1 µM. The IC50 in the test on HeLa came to 13.2 µM. Also, the “Ratio IC50” value with MES-SA stood at 0.94.
Take `O=c1c2ccccc2n(CCO)c2nc3c(cc12)ncn3C1CCCC1`: the IC50 came to 48.7 µM in the test with HCT-116; 66.4 µM with Ishikawa; 22.2 µM in test [1]; 66.4 µM in test [2]; 22.9 µM in test [3]; 19 µM in the test on Daudi. The compound also returned an IC50 with HeLa of 23.4 µM. In the test with MES-SA, the “Ratio IC50” value was 0.97.
Consider `O=c1c2ccccc2n(CCO)c2nc3c(cc12)ncn3-c1ccccc1`, for which the IC50 in the test with HCT-116 amounted to 32.9 µM; in the test with Ishikawa, 101 µM; in test [1], 47.9 µM; in test [2] it was 74.8 µM; in test [3], 51.7 µM; in the test on Daudi, 20.5 µM. Further, the 50% inhibitory concentration (IC50) in the test on HeLa is 15.3 µM. Also, the “Ratio IC50” value in the test with MES-SA came out at 0.93.
With `CC(C)n1cnc2cc3c(=O)c4ccccc4n(CCN(C)C)c3nc21`, the IC50 with HCT-116 was found to be 12.4 µM; in the test with Ishikawa, 39.4 µM; in test [1], 16.1 µM; in test [2] it was 17 µM; in test [3], 22 µM; in the test on Daudi, 12.9 µM. This compound also showed an IC50 with HeLa of 9.32 µM. The “Ratio IC50” value in the test with MES-SA came out at 0.73.
`CN(C)CCn1c2ccccc2c(=O)c2cc3ncn(C4CCCC4)c3nc21`: the IC50 in the test on HCT-116 is 30.4 µM; in the test with Ishikawa, 39.1 µM; in test [1], 25 µM; in test [2], 42.4 µM; in test [3] it was 32.8 µM; in the test with Daudi, 18.9 µM. The compound also had a half-inhibitory concentration (IC50) in the test with HeLa of 28.9 µM. For the same compound, the “Ratio IC50” value in the test on MES-SA came to 0.76.
For the compound `CN(C)CCn1c2ccccc2c(=O)c2cc3ncn(-c4ccccc4)c3nc21`, the IC50 in the test with HCT-116 was determined as 27.9 µM; with Ishikawa, 43.6 µM; in test [1] it was 41.7 µM; in test [2], 29.8 µM; in test [3] it was 47.3 µM; in the test with Daudi, 33 µM. Besides, the 50% inhibitory concentration (IC50) in the test with HeLa was 23.3 µM. Further, the “Ratio IC50” value in the test on MES-SA stood at 0.88.
With `CCN(CC)CCn1c2ccccc2c(=O)c2cc3ncn(C(C)C)c3nc21`, the IC50 is 24.5 µM in the test with HCT-116; 63.3 µM in the test on Ishikawa; 23.1 µM in test [1]; 50.6 µM in test [2]; 25.7 µM in test [3]; 18 µM with Daudi. In the test on HeLa, this compound showed a concentration for half-maximal inhibition (IC50) of 21.6 µM. The “Ratio IC50” value in the test on MES-SA worked out at 0.9.
Consider `COc1cccc2c1C(=O)c1c(O)c3c(c(O)c1C2=O)C[C@@](O)(C(=O)CO)C[C@@H]3O[C@H]1C[C@H](N)[C@H](O)[C@H](C)O1` [DOXORUBICIN], for which the concentration for half-maximal inhibition (IC50) is 0.18 µM in the test on HCT-116; 0.1 µM with Ishikawa; 2.81 µM in test [1]; 0.123 µM in test [2]; 0.035 µM in test [3]; 0.127 µM in the test with Daudi. In addition, the IC50 with HeLa was 0.337 µM. Moreover, the “Ratio IC50” value in the test with MES-SA was found to be 80.2.
In the case of `O=C1c2c(O)ccc(O)c2C(=O)c2c(NCCNCCO)ccc(NCCNCCO)c21` [MITOXANTRONE], the half-inhibitory concentration (IC50) turned out to be 0.025 µM in the test with HCT-116; 0.01 µM with Ishikawa; 0.073 µM in test [1]; 0.013 µM in test [2]; 0.006 µM in test [3]; 0.005 µM with Daudi. The IC50 in the test on HeLa stood at 0.044 µM. The “Ratio IC50” value with MES-SA was determined as 12.17.
